{"source": "patent US20100305023A1", "about": "“Method of Delaying The Onset of Clinically Definite Multiple Sclerosis” (Teva Pharmaceutical Industries, Ltd., priority 2007, published 2010)", "key": {"[1]": {"system": "patients presenting a clinically isolated syndrome (CIS)", "quoted_text": "A clinical trial was undertaken to assess, within the time frame of the up to 3-years placebo-controlled study period, the effect of GA on clinical and MRI parameters.\nSubjects received their first dose of study medication at the baseline visit. 20 mg GA formulation was injected once daily by subcutaneous route via pre-filled syringe manufactured by Teva Pharmaceutical Industries Ltd., Israel. The duration of the double-blind phase is 36 months (3 years) or until subject's conversion to CDMS, whichever comes first."}, "[2]": {"system": "patients presenting a clinically isolated syndrome (CIS)", "experimental": "Subgroup analyses related to the primary efficacy variable were performed with respect to demographics and CIS characteristics at initial attack onset (gender, age, and type of unifocal manifestation and steroid treatment for the initial attack), and MRI findings (disease dissemination/activity) at study baseline.\nNo correction for multiplicity was done for any of the following post-hoc analyses. • 1. Subgroup analysis of the primary endpoint for: gender, age, type of unifocal manifestation and corticosteroid use for the initial attack employed the Cox proportional hazards model, as for the principal analysis. Subgroup analyses of proportion of subjects converted to CDMS according to MRI activity at baseline was analyzed using Logistic Regression, as in the fourth secondary endpoint. • 2. Number of relapses: analysis of number of relapses during the placebocontrolled phase, during the entire study and on a yearly basis was performed using the Poisson regression. • 3. Time to confirmed Expanded Disability Status Scale (EDSS) progression: Progression of disability was defined as worsening of at least 1 point in EDSS sustained over 2 consecutive measurements which are at least 6 months apart. Analysis of time to confirmed EDSS progression was performed employing the Cox proportional hazards model.\nSubgroups were created for demographics and CIS characteristics at onset (gender, age, and type of unifocal presentation and steroid treatment for the initial attack), and MRI findings (disease dissemination/activity) at study baseline.", "remark": "listed apart in the source"}, "[3]": {"system": "patients presenting a clinically isolated syndrome (CIS)", "conditions": "early treatment vs delayed start of treatment with GA", "quoted_text": "A clinical trial was undertaken to assess, within the time frame of 5 years, the neuroprotective effect of early versus delayed treatment with GA as reflected by clinical and MRI parameters measuring the accumulated irreversible brain tissue damage.\nSubjects are evaluated at study centers at baseline, at months 1, 3, and every 3 months thereafter. MRI evaluations of T1 and T2 variables are assessed at screening, baseline, at 3 months, and every 3 months thereafter until conversion to CDMS or up to 3 years. An additional MRI assessment is performed upon conversion to CDMS only if no MRI is performed within the previous month. MRI is then performed at the next scheduled visit and every 6 months thereafter.\nBrain atrophy, as measured by the change in brain volume according to the Structural Image Evaluation of Normalized Atrophy (SIENA) technique is assessed at baseline, every 12 months and at conversion to CDMS.\nThe volume of black holes is assessed at baseline and at every 6 months.\nThe count of new T1-weighted hypointense lesions is assessed every 6 months.\nExploratory endpoints are defined to assess the neuroprotective effect as reflected by clinical and MRI parameters comparing the group originally assigned to GA treatment with that randomized to receive placebo treatment (delayed start of treatment with GA). The 5-year data cohort will be used for inference. […]"}, "[4]": {"system": "patients presenting a clinically isolated syndrome (CIS)", "remark": "listed apart in the source", "quoted_text": "A clinical trial was undertaken to assess the effect of treatment with GA compared to placebo on the time to conversion to CDMS, as determined by Poser (the occurrence of the second clinical attack) during the double-blind phase.\nSubjects receive their first dose of study medication at the baseline visit. 20 mg GA formulation is injected once daily by subcutaneous route via pre-filled syringe manufactured by Teva Pharmaceutical Industries Ltd., Israel. Subjects are evaluated at study centers at baseline, at months 1, 3, and every 3 months thereafter.\nThe duration of the double-blind phase is 36 months (3 years) or until subject's conversion to CDMS, whichever comes first. Conversion to CDMS is counted when the subject's symptoms are accompanied by observed objective neurological changes, consistent with: • a) an increase of at least 0.5 in the EDSS score or one grade in the score of two or more of the seven Functional Systems (FS); or • b) two grades in the score of one of FS as compared to the previous evaluation.\nThe subject must not be undergoing any acute metabolic changes such as fever or other medical abnormality. A change in bowel/bladder function or in cognitive function must not be entirely responsible for the changes in EDSS or FS scores."}, "patients with RRMS": {"system": "patients with RRMS", "conditions": "cited from earlier work"}, "[5]": {"system": "subjects with clinically isolated syndrome (CIS) suggestive of MS", "conditions": "MRS, NAA/Cr over time", "quoted_text": "Single voxel magnetic resonance spectroscopy (MRS) exams were performed at baseline and once a year subsequently. Scans were quantified locally and sent to the MRS Unit (Montreal) where they were deemed acceptable or in need of repeat (either acquisition or analysis). The MRS endpoint is the change in the ratio of N-acetylaspartate/creatine (NAA/Cr) ratio over time. NAA is seen only in neuronal tissue and is a marker of neuronal integrity; reducing with most types of insults to the brain. Cr is often used as an internal reference because it is relatively stable.\nMRS scans were performed after T2-weighted fast-spin-time echo (FSE/TSE) scans and before gadolinium injection. MRS data was obtained from a region of central white matter using a 90-180-180 (PRESS) volume selective sequence to excite a volume of 100 mm×100 mm×20 mm (range 80-100 mm×80-100 mm×20 mm) centered on the body of the corpus callosum using a long echo time (TR 2000, TE 272). The rotation of the acquisition region was the same as for the main image series. […] The region was centered left-right so that the brain mid-line passes centrally through the region. The region was positioned anterior-posterior so that the anterior corners and posterior corners are equidistant from the skull."}, "[6]": {"conditions": "20 mg once daily s.c. vs placebo"}}, "note": "Like-named read-outs stand apart in the source and are kept apart here."}
{"substance": "L-glutamic acid polymer with L-alanine, L-lysine, L-tyrosine, acetate (salt) [glatiramer acetate]", "values": [{"measurement": "patients who developed CDMS at the end of the two-year study", "setting": "[1]; 20 mg once daily s.c., placebo 43 percent", "result": 25, "unit": "%"}, {"measurement": "probability of development of CDMS over 3 years (Kaplan-Meier estimates)", "setting": "[1]; 20 mg once daily s.c., placebo 65%", "result": 36.4, "unit": "%"}, {"measurement": "treatment effect in decreasing the rate of new T2 lesions at LOV", "setting": "[1]; 20 mg vs placebo, last observed value", "result": 58, "unit": "%"}, {"measurement": "reduction of new T1 Gd-enhancing lesions in comparison to placebo, annual comparison", "setting": "[1]; 12 months", "result": "> 4.8", "unit": "fold"}, {"measurement": "reduction of new T2 lesions in comparison to placebo, annual comparison", "setting": "[1]; 12 months", "result": 6, "unit": "fold"}, {"measurement": "reduction of new T2 lesions in comparison to placebo, annual comparison", "setting": "[1]; 24 months", "result": 4, "unit": "fold"}, {"measurement": "reduction of new lesions in comparison to placebo, annual comparison of T1 Gd-enhancing lesions", "setting": "[1]; 24 months", "result": "approximately 3.8 fold"}, {"measurement": "Number of new T2 lesions at LOV, max", "setting": "[1]; GA 20 mg", "result": 15}, {"measurement": "Number of new T2 lesions at LOV, median", "setting": "[1]; GA 20 mg", "result": 0}, {"measurement": "Number of new T2 lesions at LOV, min", "setting": "[1]; GA 20 mg", "result": 0}, {"measurement": "Number of new T2 lesions at LOV, mean", "setting": "[1]; GA 20 mg, placebo 1.8", "result": 0.7}, {"measurement": "reduction of new T1 Gd-enhancing lesions in comparison to placebo, annual comparison", "setting": "[1]; ITT cohort, 12 months", "result": "> 4.5", "unit": "fold"}, {"measurement": "reduction of new T2 lesions in comparison to placebo, annual comparison", "setting": "[1]; ITT cohort, 12 months", "result": "> 3", "unit": "fold"}, {"measurement": "reduction of new T2 lesions in comparison to placebo, annual comparison", "setting": "[1]; ITT cohort, 24 months", "result": "approximately 4 fold"}, {"measurement": "reduction of new lesions in comparison to placebo, annual comparison of T1 Gd-enhancing lesions", "setting": "[1]; ITT cohort, 24 months", "result": "approximately 3 fold"}, {"measurement": "reduction of the cumulative number of new T1 Gd-enhancing lesions at LOV compared to placebo", "setting": "[1]; last observed value", "result": 619}, {"measurement": "cumulative number of new T1 Gd-enhancing lesions at LOV", "setting": "[1]; placebo 1.19", "result": 0.46}, {"measurement": "Risk Reduction with Copaxone over Placebo", "setting": "[2]; Age <30 years, listed as Copaxone ®", "result": 53, "unit": "%"}, {"measurement": "Risk Reduction with Copaxone over Placebo", "setting": "[2]; Age <30 years, listed as Copaxone®", "result": 53, "unit": "%"}, {"measurement": "% CDMS in the placebo-controlled phase", "setting": "[2]; Age >=30 years", "result": 15, "unit": "%"}, {"measurement": "% CDMS in the placebo-controlled phase", "setting": "[2]; Corticosteroids use for initial attack: No", "result": 9, "unit": "%"}, {"measurement": "Risk Reduction with Copaxone over Placebo", "setting": "[2]; Corticosteroids use for initial attack: No, listed as Copaxone ®", "result": 54, "unit": "%"}, {"measurement": "Risk Reduction with Copaxone over Placebo", "setting": "[2]; Corticosteroids use for initial attack: No, listed as Copaxone®", "result": 54, "unit": "%"}, {"measurement": "% CDMS in the placebo-controlled phase", "setting": "[2]; Corticosteroids use for initial attack: Yes", "result": 16, "unit": "%"}, {"measurement": "% CDMS in the placebo-controlled phase", "setting": "[2]; Sex: Female", "result": 14, "unit": "%"}, {"measurement": "Risk Reduction with Copaxone over Placebo", "setting": "[2]; Sex: Female, listed as Copaxone ®", "result": 48, "unit": "%"}, {"measurement": "Risk Reduction with Copaxone over Placebo", "setting": "[2]; Sex: Female, listed as Copaxone®", "result": 48, "unit": "%"}, {"measurement": "% CDMS in the placebo-controlled phase", "setting": "[2]; Sex: Male", "result": 11, "unit": "%"}, {"measurement": "Risk Reduction with Copaxone over Placebo", "setting": "[2]; Sex: Male, listed as Copaxone ®", "result": 43, "unit": "%"}, {"measurement": "Risk Reduction with Copaxone over Placebo", "setting": "[2]; Sex: Male, listed as Copaxone®", "result": 43, "unit": "%"}, {"measurement": "% CDMS in the placebo-controlled phase", "setting": "[2]; T1 Gd-enhancing lesions at baseline: T1 = 0 lesions", "result": 14, "unit": "%"}, {"measurement": "Risk Reduction with Copaxone over Placebo", "setting": "[2]; T1 Gd-enhancing lesions at baseline: T1 = 0 lesions, listed as Copaxone ®", "result": 44, "unit": "%"}, {"measurement": "Risk Reduction with Copaxone over Placebo", "setting": "[2]; T1 Gd-enhancing lesions at baseline: T1 = 0 lesions, listed as Copaxone®", "result": 44, "unit": "%"}, {"measurement": "% CDMS in the placebo-controlled phase", "setting": "[2]; T1 Gd-enhancing lesions at baseline: T1 >= 1 lesions", "result": 11, "unit": "%"}, {"measurement": "Risk Reduction with Copaxone over Placebo", "setting": "[2]; T1 Gd-enhancing lesions at baseline: T1 >= 1 lesions, listed as Copaxone ®", "result": 71, "unit": "%"}, {"measurement": "Risk Reduction with Copaxone over Placebo", "setting": "[2]; T1 Gd-enhancing lesions at baseline: T1 >= 1 lesions, listed as Copaxone®", "result": 71, "unit": "%"}, {"measurement": "% CDMS in the placebo-controlled phase", "setting": "[2]; T2 lesions at baseline: 2-8 lesions", "result": 3, "unit": "%"}, {"measurement": "Risk Reduction with Copaxone over Placebo", "setting": "[2]; T2 lesions at baseline: 2-8 lesions, listed as Copaxone ®", "result": 67, "unit": "%"}, {"measurement": "Risk Reduction with Copaxone over Placebo", "setting": "[2]; T2 lesions at baseline: 2-8 lesions, listed as Copaxone®", "result": 67, "unit": "%"}, {"measurement": "% CDMS in the placebo-controlled phase", "setting": "[2]; T2 lesions at baseline: >=9 lesions", "result": 22, "unit": "%"}, {"measurement": "Risk Reduction with Copaxone over Placebo", "setting": "[2]; T2 lesions at baseline: >=9 lesions, listed as Copaxone ®", "result": 58, "unit": "%"}, {"measurement": "Risk Reduction with Copaxone over Placebo", "setting": "[2]; T2 lesions at baseline: >=9 lesions, listed as Copaxone®", "result": 58, "unit": "%"}, {"measurement": "% CDMS in the placebo-controlled phase", "setting": "[2]; Unifocal manifestation: Optic", "result": 6, "unit": "%"}, {"measurement": "Risk Reduction with Copaxone over Placebo", "setting": "[2]; Unifocal manifestation: Optic, listed as Copaxone ®", "result": 66, "unit": "%"}, {"measurement": "Risk Reduction with Copaxone over Placebo", "setting": "[2]; Unifocal manifestation: Optic, listed as Copaxone®", "result": 66, "unit": "%"}, {"measurement": "% CDMS in the placebo-controlled phase", "setting": "[2]; Unifocal manifestation: Spinal", "result": 7, "unit": "%"}, {"measurement": "Risk Reduction with Copaxone over Placebo", "setting": "[2]; Unifocal manifestation: Spinal", "result": 17, "unit": "%"}, {"measurement": "5-year relapse rate", "setting": "[3]", "result": "decreased"}, {"measurement": "level of disability (EDSS Score)", "setting": "[3]", "result": "reduced"}, {"measurement": "proportion of patients who convert to CDMS during the 5-year treatment period", "setting": "[3]", "result": "decreased"}, {"measurement": "time from randomization to conversion to CDMS during the 5-year period", "setting": "[3]", "result": "increased"}, {"measurement": "prolongation of the quartile time to CDMS", "setting": "[4]; [6]", "result": 115, "unit": "%"}, {"measurement": "reduction of the risk in developing clinically definite MS (CDMS)", "setting": "[4]; [6]", "result": 44, "unit": "%"}, {"measurement": "Kaplan-Meier time to conversion to CDMS, 25% percentile", "setting": "[4]; 20 mg once daily s.c., ITT, placebo 336 days", "result": 722, "unit": "days"}, {"measurement": "total number of enhancing lesions as measured by MRI", "setting": "patients with RRMS; 20 and 40 mg/day subcutaneous, MS patients", "result": "reduce"}, {"measurement": "efficacy in reducing the frequency of relapses", "setting": "patients with RRMS; patients with RRMS", "result": "well established"}, {"measurement": "axonal damage", "setting": "[5]", "result": "reduces"}]}
